Here are results for nine compounds from ChEMBL document CHEMBL5338775, “Discovery of a Novel Class of PROTACs as Potent and Selective Estrogen Receptor α Degraders to Overcome Endocrine-Resistant Breast Cancer In Vitro and In Vivo” (J Med Chem, 2023).

In series [1] the target is T1, Estrogen receptor beta (Homo sapiens, UniProt Q92731). Briefly: Binding affinity to ERbeta (unknown origin) assessed as relative binding affinity incubated for 2 hrs by fluorescence polarization assay relative to estradiol. (In fluorescence polarisation assays a small probe gives low polarisation when free and higher when bound to something large.)
T1 sequence (Q92731 whole entry): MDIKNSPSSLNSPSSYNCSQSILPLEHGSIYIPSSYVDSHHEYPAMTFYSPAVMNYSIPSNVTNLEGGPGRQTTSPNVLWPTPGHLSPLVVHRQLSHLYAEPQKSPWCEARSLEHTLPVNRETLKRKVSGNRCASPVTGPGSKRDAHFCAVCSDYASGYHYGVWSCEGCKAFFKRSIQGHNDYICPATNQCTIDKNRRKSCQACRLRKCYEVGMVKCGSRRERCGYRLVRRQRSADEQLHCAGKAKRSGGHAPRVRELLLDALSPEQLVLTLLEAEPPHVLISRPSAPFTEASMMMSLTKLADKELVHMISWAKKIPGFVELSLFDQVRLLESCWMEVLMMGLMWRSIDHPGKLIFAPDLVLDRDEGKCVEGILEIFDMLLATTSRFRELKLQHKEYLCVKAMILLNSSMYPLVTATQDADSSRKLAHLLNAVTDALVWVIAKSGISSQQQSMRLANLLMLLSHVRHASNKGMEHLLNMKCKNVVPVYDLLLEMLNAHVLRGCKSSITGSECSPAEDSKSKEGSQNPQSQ
Series [2] in a line: Selectivity ratio of relative binding affinity for ERalpha (unknown origin) to relative binding affinity to ERbeta (unknown origin).
Series [3] in a line: Selectivity index, ratio of Ki for ERalpha (unknown origin) to Ki for ERbeta (unknown origin).
The target of series [4] is T2, von Hippel-Lindau disease tumor suppressor/Estrogen receptor (Homo sapiens) (UniProt P03372+P40337). Briefly: PROTAC activity at VHL/ERalpha in ER-positive human MCF7 cells assessed as induction of ERalpha degradation at 1 to 5 uM incubated for 12 hrs by Western blot analysis. The conditions noted are these: dose 1-5 µM. Format: cell-based. A general note: Immunoblotting shows a protein as a band on a membrane.
T2 sequence (P40337 whole entry, looked up, one chain of several): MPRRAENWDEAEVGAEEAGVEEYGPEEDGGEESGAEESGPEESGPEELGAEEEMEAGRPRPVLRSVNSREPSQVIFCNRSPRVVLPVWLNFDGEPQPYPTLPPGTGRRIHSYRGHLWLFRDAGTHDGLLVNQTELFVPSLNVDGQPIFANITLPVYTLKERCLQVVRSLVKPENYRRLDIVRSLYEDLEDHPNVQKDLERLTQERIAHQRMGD

A further series deals with T3, Estrogen receptor (Homo sapiens, UniProt P03372).
T3 sequence (P03372 whole entry): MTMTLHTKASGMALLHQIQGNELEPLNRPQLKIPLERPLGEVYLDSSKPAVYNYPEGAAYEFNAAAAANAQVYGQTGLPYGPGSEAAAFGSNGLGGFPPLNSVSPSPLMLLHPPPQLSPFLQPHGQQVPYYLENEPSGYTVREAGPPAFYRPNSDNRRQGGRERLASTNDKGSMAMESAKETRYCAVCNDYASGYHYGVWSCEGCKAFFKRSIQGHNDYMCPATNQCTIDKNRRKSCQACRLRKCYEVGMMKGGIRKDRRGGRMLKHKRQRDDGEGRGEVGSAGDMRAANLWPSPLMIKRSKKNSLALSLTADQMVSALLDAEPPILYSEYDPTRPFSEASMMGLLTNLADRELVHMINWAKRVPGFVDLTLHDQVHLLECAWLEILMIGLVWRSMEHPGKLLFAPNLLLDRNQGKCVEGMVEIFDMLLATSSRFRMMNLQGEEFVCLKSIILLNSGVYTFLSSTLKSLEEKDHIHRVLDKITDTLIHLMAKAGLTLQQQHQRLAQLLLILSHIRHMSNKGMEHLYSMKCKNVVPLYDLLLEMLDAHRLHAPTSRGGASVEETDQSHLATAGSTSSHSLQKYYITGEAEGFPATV

Series [5] addresses T1, Estrogen receptor beta.
For series [6], the system named is MCF7. In words: cells. To be noted: Homo sapiens, MCF7, 72 h.
A short description of the next series: cells. To be noted: Homo sapiens, Tamoxifen-resistant LCC2 cell, 72 h.
For series [7], the system named is T47D. Briefly: cells. To be noted: Homo sapiens, 72 h.
Series [8] deals with T47D. In words: cells. To be noted: Homo sapiens, 72 h. The source holds these as a separate data set.
Series [9] has as its system T47D. In words: cells. To be noted: Homo sapiens, 72 h. The source holds these as a separate data set.
Another series deals with MDA-MB-231. In words: cells. The conditions noted are these: Homo sapiens, MDA-MB-231, 72 h.
The nature of another series: in vitro. The conditions noted are these: human, MCF-10A cells.
For series [10], the target named is T2, von Hippel-Lindau disease tumor suppressor/Estrogen receptor (Homo sapiens). Briefly: PROTAC activity at VHL/wild type ERalpha in ER-positive human MCF7 cells assessed as induction of ERalpha degradation at 1 uM incubated for 12 hrs by Western blot analysis. Format: cell-based.
The target is the same in series [11]. Briefly: PROTAC activity at VHL/wild type ERalpha in ER-positive human T47D cells assessed as induction of ERalpha degradation at 2 uM incubated for 12 hrs by Western blot analysis. Format: cell-based.
For series [12] the target is unchanged. In words: PROTAC activity at VHL/ERalpha in ER-positive human tamoxifen-resistant LCC2 cells assessed as induction of ERalpha degradation at 2 uM incubated for 12 hrs by Western blot analysis. Format: cell-based. To be noted: tamoxifen-resistant LCC2 cell.
For series [13], the target named is Protein cereblon/Estrogen receptor (Homo sapiens) (UniProt P03372+Q96SW2). Briefly: PROTAC activity at CRBN/wild type ERalpha in ER-positive human MCF7 cells assessed as induction of ERalpha degradation at 1 uM incubated for 12 hrs by Western blot analysis. Format: cell-based.
Chain of Protein cereblon/Estrogen receptor (Homo sapiens) (Q96SW2 whole entry, looked up, one chain of several): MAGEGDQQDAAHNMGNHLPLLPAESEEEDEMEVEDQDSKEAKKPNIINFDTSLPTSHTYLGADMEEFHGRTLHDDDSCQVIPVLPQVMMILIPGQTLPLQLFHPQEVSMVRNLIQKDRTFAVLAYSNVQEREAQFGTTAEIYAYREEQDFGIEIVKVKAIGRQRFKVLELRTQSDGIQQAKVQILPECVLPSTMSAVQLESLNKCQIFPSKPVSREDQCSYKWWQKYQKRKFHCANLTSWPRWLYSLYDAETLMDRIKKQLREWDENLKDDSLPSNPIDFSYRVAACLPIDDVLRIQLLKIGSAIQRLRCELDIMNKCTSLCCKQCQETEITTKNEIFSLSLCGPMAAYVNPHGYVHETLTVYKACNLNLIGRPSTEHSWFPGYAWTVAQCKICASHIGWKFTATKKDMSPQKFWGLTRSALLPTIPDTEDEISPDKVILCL
The subject of series [14] is MCF7. Briefly: Antitumor activity against human tamoxifen-sensitive MCF7 cells xenografted in BALB/c nude mouse assessed as inhibition of tumor growth at 5 micromol/kg, ip administered once every 2 days and measured every 2 days. Format: functional, organism-based. To be noted: dose 5.0 µmol/kg. A general note: A xenograft is tissue or cells of one species grown in another, often human tumour cells in immunodeficient mice.

Another series relates to Mus musculus. Briefly: In vivo protac activity at VHL/ERalpha in BALB/c nude mouse xenografted with human tamoxifen-sensitive MCF7 cells assessed as reduction in ERalpha protein levels in tumor at 5 micromol/kg, ip administered once every 2 days by Western blot analysis. Format: functional, organism-based. To be noted: dose 5.0 µmol/kg.
Series [15] concerns MCF7. Briefly: Antitumor activity against human tamoxifen-sensitive MCF7 cells xenografted in BALB/c nude mouse assessed as increase in tumor necrosis area at 5 micromol/kg, ip administered once every 2 days by […] staining based analysis. Format: functional, organism-based. The conditions noted are these: dose 5.0 µmol/kg.
In series [16] the test system is MCF7. Briefly: Antitumor activity against human tamoxifen-sensitive MCF7 cells xenografted in BALB/c nude mouse assessed as reduction in cell proliferation at 5 micromol/kg, ip administered once every 2 days by ki67 staining based analysis. Format: functional, organism-based. The conditions noted are these: dose 5.0 µmol/kg.

The source made the active and inactive calls. No cut-off for these calls is given here. Bounds are passed on as bounds.

By Ki is commonly meant the dissociation constant of the complex between target and ligand, obtained from inhibition or displacement. Read a high Ki as weaker binding. By IC50 is commonly meant the concentration needed to halve the response being measured. Consider `Cc1ncsc1-c1ccc([C@H](C)NC(=O)[C@@H]2C[C@H](O)CN2C(=O)[C@@H](NC(=O)CCCCCOc2ccc(N(CC(F)(F)F)S(=O)(=O)C3CC4OC3C(c3ccc(O)cc3)=C4c3ccc(O)cc3)cc2)C(C)(C)C)cc1` (some centres not stated), for which the RBA on Estrogen receptor beta [1] was found to be 0.05%. The Selectivity ratio in series [2] is 1.6. Further, in [3], the Ratio Ki came out at 6.2. For the same compound, the result in series [4] was inactive. The Ki was determined as 2.54 µM at Estrogen receptor and 15.7 µM on Estrogen receptor beta [5]. Further, the IC50 in the series with MCF7 [6] was more than 50 µM; in “cells”, more than 50 µM; in the series with T47D [7], more than 50 µM; in the series on T47D [8], more than 50 µM; with T47D [9], more than 50 µM; with MDA-MB-231, more than 100 µM. In “in vitro”, this compound yielded an IC50 at 72 h of more than 100 µM.

With `COc1ccc(N(CC(F)(F)F)S(=O)(=O)C2CC3OC2C(c2ccc(OCCCCCC(=O)N[C@H](C(=O)N4C[C@H](O)C[C@H]4C(=O)N[C@@H](C)c4ccc(-c5scnc5C)cc4)C(C)(C)C)cc2)=C3c2ccc(O)cc2)cc1` (some centres not stated), the RBA at Estrogen receptor beta [1] was determined as 0.03%. Also, the Selectivity ratio in series [2] came out at 2.67. Further, the Ratio Ki in [3] worked out at 10.3. The outcome in [10] was inactive. The Ki at Estrogen receptor stood at 2.54 µM; on Estrogen receptor beta [5], 26.2 µM. For the same compound, the concentration for half-maximal inhibition (IC50) with MCF7 [6] was more than 10 µM; in the series “cells” it was more than 30 µM; in the series with T47D [7] it was more than 30 µM; with T47D [8], more than 30 µM; in the series on T47D [9] it was more than 30 µM; in the series on MDA-MB-231, more than 100 µM. Moreover, the IC50 at 72 h in “in vitro” was more than 100 µM.

For `CCN(c1ccc(OCCCCCC(=O)N[C@H](C(=O)N2C[C@@H](O)C[C@H]2C(=O)N[C@@H](C)c2ccc(-c3scnc3C)cc2)C(C)(C)C)cc1)S(=O)(=O)C1CC2OC1C(c1ccc(O)cc1)=C2c1ccc(O)cc1` (some centres not stated), the RBA at Estrogen receptor beta [1] worked out at 0.16%. Moreover, the Selectivity ratio in series [2] is 0.81. Moreover, the Ratio Ki in series [3] came to 3.15. The result in series [4] was inactive. Further, the Ki at Estrogen receptor is 1.56 µM; on Estrogen receptor beta [5] it was 4.91 µM. Besides, the IC50 in the series on MCF7 [6] is more than 50 µM; in the series “cells” it was more than 50 µM; in the series on T47D [7] it was more than 50 µM; with T47D [8], more than 50 µM; in the series with T47D [9], more than 50 µM; in the series on MDA-MB-231 it was more than 100 µM. Moreover, the IC50 at 72 h in the series “in vitro” was more than 100 µM.

Consider `COc1ccc(N(CC(F)(F)F)S(=O)(=O)C2CC3OC2C(c2ccc(OCCCCCC(=O)N[C@H](C(=O)N4C[C@H](O)C[C@H]4C(=O)NCc4ccc(-c5scnc5C)cc4)C(C)(C)C)cc2)=C3c2ccc(O)cc2)cc1` (some centres not stated), for which, on Estrogen receptor beta [1], the RBA was determined as 0.07%. Further, the Selectivity ratio in series [2] came out at 1.57. Moreover, the Ratio Ki in series [3] came out at 6.08. Besides, in series [10], the outcome was inactive. For the same compound, the Ki on Estrogen receptor stood at 1.85 µM; on Estrogen receptor beta [5] it was 11.2 µM. Besides, the IC50 was more than 10 µM in the series on MCF7 [6]; more than 30 µM in “cells”; more than 30 µM in the series with T47D [7]; more than 30 µM in the series on T47D [8]; more than 30 µM with T47D [9]; more than 100 µM in the series on MDA-MB-231. Besides, in “in vitro”, the IC50 at 72 h was more than 100 µM.

With `Cc1ncsc1-c1ccc(CNC(=O)[C@@H]2C[C@@H](O)CN2C(=O)[C@@H](NC(=O)CCCCCOc2ccc(N(CC(F)(F)F)S(=O)(=O)C3CC4OC3C(c3ccc(O)cc3)=C4c3ccc(O)cc3)cc2)C(C)(C)C)cc1` (some centres not stated), the RBA on Estrogen receptor beta [1] was found to be 0.04%. In addition, the Selectivity ratio in [2] was determined as 1.75. Also, the Ratio Ki in [3] amounted to 6.78. Also, the result in [10], in series [11] and in series [12] was Active. In addition, the Ki was determined as 2.9 µM at Estrogen receptor and 19.7 µM on Estrogen receptor beta [5]. Further, the IC50 is 0.11 µM in the series with MCF7 [6]; 13 µM in the series “cells”; 12.6 µM in the series on T47D [7]; 11.3 µM in the series with T47D [8]; 9.28 µM with T47D [9]; more than 100 µM in the series on MDA-MB-231. In the series “in vitro”, this compound came in with an IC50 at 72 h of 1.35 µM.

Consider `O=C(COc1cccc2c1C(=O)N(C1CCC(=O)NC1=O)C2=O)NCCCCCCOc1ccc(N(CC(F)(F)F)S(=O)(=O)C2CC3OC2C(c2ccc(O)cc2)=C3c2ccc(O)cc2)cc1` (configuration not stated), for which the RBA on Estrogen receptor beta [1] is 0.1%. Moreover, the Selectivity ratio in series [2] was found to be 1.1. Also, the Ratio Ki in series [3] amounted to 4.26. In addition, in [13], the outcome was Active. Also, the Ki at Estrogen receptor turned out to be 1.85 µM; at Estrogen receptor beta [5], 7.86 µM. Besides, the IC50 in the series on MCF7 [6] was 11 µM; in the series “cells” it was more than 30 µM; with T47D [7] it was 25.4 µM; with T47D [8] it was more than 30 µM; with T47D [9] it was more than 30 µM; in the series with MDA-MB-231, more than 100 µM. In “in vitro”, this compound yielded an IC50 at 72 h of more than 100 µM.

With `CCN(c1ccc(OCCCCCC(=O)N[C@H](C(=O)N2C[C@H](O)C[C@H]2C(=O)NCc2ccc(-c3scnc3C)cc2)C(C)(C)C)cc1)S(=O)(=O)C1CC2OC1C(c1ccc(O)cc1)=C2c1ccc(O)cc1` (some centres not stated), on Estrogen receptor beta [1], the RBA amounted to 0.08%. The Selectivity ratio in series [2] came to 1.38. Also, in series [3], the Ratio Ki worked out at 5.32. Besides, the result in series [10], in [11] and in series [12] was Active. Further, the Ki at Estrogen receptor was determined as 1.85 µM; on Estrogen receptor beta [5], 9.83 µM. The IC50 is 1.61 µM in the series with MCF7 [6]; 14.2 µM in “cells”; 0.76 µM in the series on T47D [7]; 0.73 µM in the series with T47D [8]; 1.78 µM in the series on T47D [9]; more than 100 µM in the series with MDA-MB-231. This compound registered a concentration for half-maximal inhibition (IC50) at 72 h in “in vitro” of 5.17 µM.

In the case of `O=C(COc1cccc2c1C(=O)N(C1CCC(=O)NC1=O)C2=O)NCCCCCCCCOc1ccc(N(CC(F)(F)F)S(=O)(=O)C2CC3OC2C(c2ccc(O)cc2)=C3c2ccc(O)cc2)cc1` (configuration not stated), on Estrogen receptor beta [1], the RBA was 0.16%. Besides, the Selectivity ratio in series [2] is 0.88. The Ratio Ki in series [3] was 3.39. The outcome in [13] was inactive. The Ki on Estrogen receptor was found to be 1.45 µM; on Estrogen receptor beta [5] it was 4.91 µM. The IC50 was more than 50 µM in the series on MCF7 [6]; more than 50 µM in “cells”; more than 50 µM with T47D [7]; more than 50 µM in the series with T47D [8]; more than 50 µM in the series with T47D [9]; more than 100 µM in the series with MDA-MB-231. The same compound yielded an IC50 at 72 h in the series “in vitro” of more than 100 µM.

As to `CC/C(=C(\c1ccccc1)c1ccc(OCCN(C)C)cc1)c1ccccc1`, the inhibition result with MCF7 [14] was “Active”. Further, the result with Mus musculus was inactive. The outcome with MCF7 [15] and with MCF7 [16] was Active.
